{
  "source": "ChEMBL document CHEMBL1914402",
  "about": "“Design, synthesis, and biological evaluation of 3,4-dihydroquinolin-2(1H)-one and 1,2,3,4-tetrahydroquinoline-based selective human neuronal nitric oxide synthase (nNOS) inhibitors” (J Med Chem, 2011)",
  "key": {"[1]": {"biological_target": "Nitric oxide synthase, inducible (Homo sapiens, UniProt P35228)", "sequence (P35228 whole entry)": "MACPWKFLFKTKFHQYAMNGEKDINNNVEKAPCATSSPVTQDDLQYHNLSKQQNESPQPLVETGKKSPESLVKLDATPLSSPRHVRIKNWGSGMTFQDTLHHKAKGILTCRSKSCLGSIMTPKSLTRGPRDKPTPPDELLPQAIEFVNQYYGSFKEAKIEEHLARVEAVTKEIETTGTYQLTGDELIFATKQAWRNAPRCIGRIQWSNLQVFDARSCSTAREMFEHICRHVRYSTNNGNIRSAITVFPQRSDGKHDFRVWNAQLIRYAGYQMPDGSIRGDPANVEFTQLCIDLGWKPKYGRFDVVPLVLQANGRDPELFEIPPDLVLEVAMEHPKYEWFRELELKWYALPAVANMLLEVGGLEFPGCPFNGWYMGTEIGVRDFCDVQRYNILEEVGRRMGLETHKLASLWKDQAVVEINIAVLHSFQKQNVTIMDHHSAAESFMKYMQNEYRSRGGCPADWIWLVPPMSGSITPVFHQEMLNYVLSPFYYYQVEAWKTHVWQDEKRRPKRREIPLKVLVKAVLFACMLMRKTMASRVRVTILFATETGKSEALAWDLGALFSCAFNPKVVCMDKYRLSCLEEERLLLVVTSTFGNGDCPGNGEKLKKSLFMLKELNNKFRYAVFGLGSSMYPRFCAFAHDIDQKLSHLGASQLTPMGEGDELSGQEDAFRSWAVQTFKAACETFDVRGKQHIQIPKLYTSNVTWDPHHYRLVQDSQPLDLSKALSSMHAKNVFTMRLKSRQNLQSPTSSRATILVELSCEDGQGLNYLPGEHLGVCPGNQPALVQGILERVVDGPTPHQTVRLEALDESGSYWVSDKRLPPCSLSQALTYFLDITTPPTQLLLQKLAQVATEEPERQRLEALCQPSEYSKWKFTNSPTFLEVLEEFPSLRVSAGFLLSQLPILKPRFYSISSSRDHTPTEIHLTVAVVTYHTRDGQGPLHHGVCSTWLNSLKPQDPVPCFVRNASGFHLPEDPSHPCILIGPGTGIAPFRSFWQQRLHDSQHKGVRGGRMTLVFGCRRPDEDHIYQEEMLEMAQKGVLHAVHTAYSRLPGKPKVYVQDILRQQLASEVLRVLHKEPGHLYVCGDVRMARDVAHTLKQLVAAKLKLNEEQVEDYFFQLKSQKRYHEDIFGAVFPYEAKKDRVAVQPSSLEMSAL", "test": "Inhibition of human recombinant iNOS expressed in baculovirus infected Sf9 cells assessed as conversion of [3H]L-arginine to [3H]L-citrulline preincubated for 15 mins measured after 45 mins by liquid scintillation counting", "assay_type": "cell-based"}, "Nitric oxide synthase 1": {"biological_target": "Nitric oxide synthase 1 (Homo sapiens, UniProt P29475)", "sequence (P29475 whole entry)": "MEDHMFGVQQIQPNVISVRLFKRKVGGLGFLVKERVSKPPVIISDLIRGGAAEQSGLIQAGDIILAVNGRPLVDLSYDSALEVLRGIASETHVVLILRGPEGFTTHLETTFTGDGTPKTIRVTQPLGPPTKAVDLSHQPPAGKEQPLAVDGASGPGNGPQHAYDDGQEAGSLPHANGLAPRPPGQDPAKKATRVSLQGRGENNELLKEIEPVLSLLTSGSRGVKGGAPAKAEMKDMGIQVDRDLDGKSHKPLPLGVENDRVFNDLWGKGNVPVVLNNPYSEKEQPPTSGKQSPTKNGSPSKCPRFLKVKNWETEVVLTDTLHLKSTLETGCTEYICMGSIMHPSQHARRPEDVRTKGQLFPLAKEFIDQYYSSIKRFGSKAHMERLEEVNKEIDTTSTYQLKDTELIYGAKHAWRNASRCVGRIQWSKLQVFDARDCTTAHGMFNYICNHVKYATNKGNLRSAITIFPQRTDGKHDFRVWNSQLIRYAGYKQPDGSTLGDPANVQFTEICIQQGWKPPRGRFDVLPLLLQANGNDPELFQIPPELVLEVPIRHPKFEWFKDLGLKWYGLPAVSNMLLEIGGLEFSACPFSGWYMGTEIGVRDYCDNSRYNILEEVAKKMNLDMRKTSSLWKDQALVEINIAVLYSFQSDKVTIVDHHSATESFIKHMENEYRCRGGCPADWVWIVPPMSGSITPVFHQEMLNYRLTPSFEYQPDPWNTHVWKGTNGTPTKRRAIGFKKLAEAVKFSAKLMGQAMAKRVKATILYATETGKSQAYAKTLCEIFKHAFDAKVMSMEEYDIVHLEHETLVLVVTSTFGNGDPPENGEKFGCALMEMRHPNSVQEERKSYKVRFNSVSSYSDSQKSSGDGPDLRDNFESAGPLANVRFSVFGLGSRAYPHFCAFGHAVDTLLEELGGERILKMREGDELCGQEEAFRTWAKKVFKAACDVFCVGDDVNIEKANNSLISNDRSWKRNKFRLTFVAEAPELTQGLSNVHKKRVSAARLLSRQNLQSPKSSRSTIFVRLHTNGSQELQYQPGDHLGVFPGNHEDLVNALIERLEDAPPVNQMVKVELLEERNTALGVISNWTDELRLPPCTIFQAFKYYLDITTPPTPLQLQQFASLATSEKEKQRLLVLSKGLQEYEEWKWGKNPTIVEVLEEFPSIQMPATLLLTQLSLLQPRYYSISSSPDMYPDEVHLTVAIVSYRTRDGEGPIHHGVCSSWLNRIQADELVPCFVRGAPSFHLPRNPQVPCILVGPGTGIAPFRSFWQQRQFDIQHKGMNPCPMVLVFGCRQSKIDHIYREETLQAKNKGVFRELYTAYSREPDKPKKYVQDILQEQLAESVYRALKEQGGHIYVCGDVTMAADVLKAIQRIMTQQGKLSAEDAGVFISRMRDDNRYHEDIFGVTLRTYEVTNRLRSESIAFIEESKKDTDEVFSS", "test": "Inhibition of human recombinant nNOS expressed in baculovirus infected Sf9 cells assessed as conversion of [3H]L-arginine to [3H]L-citrulline preincubated for 15 mins measured after 45 mins by liquid scintillation counting", "assay_type": "cell-based"}, "Cytochrome P450 1A2": {"biological_target": "T1, Cytochrome P450 1A2 (Homo sapiens, UniProt P05177)", "T1 sequence (P05177 whole entry)": "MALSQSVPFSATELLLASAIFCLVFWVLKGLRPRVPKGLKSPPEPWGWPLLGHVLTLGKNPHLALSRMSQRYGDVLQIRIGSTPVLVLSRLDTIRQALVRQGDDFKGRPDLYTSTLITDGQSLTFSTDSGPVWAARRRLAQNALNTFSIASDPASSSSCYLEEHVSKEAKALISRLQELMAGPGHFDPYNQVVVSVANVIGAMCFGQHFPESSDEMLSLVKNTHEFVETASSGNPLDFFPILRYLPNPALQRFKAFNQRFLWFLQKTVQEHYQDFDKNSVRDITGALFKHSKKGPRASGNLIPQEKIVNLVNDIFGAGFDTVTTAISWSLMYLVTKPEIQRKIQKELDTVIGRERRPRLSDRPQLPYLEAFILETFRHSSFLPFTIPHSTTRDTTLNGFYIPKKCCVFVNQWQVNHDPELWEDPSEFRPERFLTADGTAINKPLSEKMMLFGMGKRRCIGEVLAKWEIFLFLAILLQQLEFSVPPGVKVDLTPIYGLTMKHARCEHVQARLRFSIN", "test": "Inhibition of human CYP1A2", "assay_type": "ADME"}, "Cytochrome P450 3A4": {"biological_target": "Cytochrome P450 3A4 (Homo sapiens, UniProt P08684)", "sequence (P08684 whole entry)": "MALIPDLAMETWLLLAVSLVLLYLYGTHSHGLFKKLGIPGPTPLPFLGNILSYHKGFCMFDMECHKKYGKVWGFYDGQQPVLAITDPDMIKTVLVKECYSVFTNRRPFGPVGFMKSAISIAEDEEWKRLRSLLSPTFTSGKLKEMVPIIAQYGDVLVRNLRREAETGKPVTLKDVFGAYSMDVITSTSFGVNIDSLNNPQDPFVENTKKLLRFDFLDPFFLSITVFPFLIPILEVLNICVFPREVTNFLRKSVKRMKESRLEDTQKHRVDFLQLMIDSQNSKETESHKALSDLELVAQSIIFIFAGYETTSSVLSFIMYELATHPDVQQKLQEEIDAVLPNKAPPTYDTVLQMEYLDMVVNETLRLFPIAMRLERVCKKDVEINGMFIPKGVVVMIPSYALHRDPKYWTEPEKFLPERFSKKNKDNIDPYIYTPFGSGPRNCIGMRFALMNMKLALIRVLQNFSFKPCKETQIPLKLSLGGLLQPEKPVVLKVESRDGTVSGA", "test": "Inhibition of human CYP3A4", "assay_type": "ADME"}, "Cytochrome P450 2D6": {"biological_target": "Cytochrome P450 2D6 (Homo sapiens, UniProt P10635)", "sequence (P10635 whole entry)": "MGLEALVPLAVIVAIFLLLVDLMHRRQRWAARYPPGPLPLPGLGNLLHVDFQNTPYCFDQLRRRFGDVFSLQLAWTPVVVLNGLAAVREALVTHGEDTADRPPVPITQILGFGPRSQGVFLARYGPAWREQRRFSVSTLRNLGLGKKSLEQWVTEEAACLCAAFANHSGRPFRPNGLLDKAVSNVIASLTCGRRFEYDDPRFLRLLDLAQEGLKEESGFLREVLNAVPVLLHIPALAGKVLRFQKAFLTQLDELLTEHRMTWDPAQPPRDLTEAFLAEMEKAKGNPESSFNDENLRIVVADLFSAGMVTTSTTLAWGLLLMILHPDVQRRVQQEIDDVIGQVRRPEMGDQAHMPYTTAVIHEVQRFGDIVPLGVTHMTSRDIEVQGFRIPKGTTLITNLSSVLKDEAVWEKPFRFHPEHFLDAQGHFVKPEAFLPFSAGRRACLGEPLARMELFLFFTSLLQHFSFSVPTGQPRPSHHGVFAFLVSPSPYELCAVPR", "test": "Inhibition of human CYP2D6", "assay_type": "ADME"}, "Cytochrome P450 2C9": {"biological_target": "Cytochrome P450 2C9 (Homo sapiens, UniProt P11712)", "sequence (P11712 whole entry)": "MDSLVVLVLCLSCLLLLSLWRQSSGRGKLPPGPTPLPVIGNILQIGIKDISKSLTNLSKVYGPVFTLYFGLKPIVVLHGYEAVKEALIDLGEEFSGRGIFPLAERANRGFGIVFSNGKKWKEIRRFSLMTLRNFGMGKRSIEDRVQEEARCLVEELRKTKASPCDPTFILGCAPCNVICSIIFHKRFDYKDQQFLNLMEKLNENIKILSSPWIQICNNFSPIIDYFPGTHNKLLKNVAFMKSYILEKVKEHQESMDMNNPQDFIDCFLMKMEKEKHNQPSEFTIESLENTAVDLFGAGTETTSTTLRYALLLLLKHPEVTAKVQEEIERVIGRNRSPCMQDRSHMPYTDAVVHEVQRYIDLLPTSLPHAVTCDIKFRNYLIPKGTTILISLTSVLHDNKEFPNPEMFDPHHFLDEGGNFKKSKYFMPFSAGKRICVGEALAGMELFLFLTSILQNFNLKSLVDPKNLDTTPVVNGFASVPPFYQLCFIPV", "test": "Inhibition of human CYP2C9", "assay_type": "ADME"}, "Cytochrome P450 2C19": {"biological_target": "Cytochrome P450 2C19 (Homo sapiens, UniProt P33261)", "sequence (P33261 whole entry)": "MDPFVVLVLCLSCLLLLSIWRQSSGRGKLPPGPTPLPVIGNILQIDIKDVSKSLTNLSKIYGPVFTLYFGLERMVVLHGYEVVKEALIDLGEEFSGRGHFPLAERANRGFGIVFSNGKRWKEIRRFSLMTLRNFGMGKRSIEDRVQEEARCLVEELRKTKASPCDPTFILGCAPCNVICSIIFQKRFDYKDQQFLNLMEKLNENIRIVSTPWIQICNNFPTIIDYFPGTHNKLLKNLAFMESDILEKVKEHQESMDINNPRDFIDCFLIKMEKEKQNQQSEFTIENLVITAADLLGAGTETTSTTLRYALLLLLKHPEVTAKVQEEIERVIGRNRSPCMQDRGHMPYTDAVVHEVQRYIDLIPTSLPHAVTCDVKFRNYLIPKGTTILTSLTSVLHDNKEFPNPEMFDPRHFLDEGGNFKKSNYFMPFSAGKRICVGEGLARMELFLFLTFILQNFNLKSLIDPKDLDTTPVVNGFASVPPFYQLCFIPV", "test": "Inhibition of human CYP2C19", "assay_type": "ADME"}, "Nitric oxide synthase 3": {"biological_target": "T2, Nitric oxide synthase 3 (Homo sapiens, UniProt P29474)", "T2 sequence (P29474 whole entry)": "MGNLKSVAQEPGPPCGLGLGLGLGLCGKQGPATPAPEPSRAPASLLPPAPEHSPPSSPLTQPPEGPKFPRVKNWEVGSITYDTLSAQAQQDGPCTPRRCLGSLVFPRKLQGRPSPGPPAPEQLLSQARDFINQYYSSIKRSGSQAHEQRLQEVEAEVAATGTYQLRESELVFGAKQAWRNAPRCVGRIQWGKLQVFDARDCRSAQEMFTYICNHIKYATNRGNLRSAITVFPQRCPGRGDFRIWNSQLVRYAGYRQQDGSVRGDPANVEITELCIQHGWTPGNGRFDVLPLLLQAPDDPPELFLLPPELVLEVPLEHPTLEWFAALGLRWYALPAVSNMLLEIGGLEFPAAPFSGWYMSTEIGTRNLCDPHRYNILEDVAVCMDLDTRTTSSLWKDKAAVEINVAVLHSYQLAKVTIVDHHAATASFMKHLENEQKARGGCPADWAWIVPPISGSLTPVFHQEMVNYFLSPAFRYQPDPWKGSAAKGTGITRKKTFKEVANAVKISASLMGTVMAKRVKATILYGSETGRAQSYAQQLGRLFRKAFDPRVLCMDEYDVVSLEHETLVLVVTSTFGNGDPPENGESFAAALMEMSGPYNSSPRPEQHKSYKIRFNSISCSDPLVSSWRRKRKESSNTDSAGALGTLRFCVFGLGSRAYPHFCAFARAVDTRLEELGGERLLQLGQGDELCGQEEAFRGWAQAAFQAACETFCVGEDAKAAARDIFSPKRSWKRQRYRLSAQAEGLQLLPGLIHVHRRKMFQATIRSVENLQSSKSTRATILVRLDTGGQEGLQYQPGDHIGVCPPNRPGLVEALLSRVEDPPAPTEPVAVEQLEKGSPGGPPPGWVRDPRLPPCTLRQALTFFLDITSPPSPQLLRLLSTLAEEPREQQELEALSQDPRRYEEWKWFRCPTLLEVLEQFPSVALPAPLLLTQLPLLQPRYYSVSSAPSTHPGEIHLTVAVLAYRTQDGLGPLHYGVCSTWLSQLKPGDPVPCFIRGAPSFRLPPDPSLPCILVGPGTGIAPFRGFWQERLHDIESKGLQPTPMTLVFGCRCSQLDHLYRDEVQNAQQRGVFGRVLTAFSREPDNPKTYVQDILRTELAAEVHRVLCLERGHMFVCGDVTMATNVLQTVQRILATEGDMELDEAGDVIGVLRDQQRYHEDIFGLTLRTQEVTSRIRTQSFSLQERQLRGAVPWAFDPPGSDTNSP", "test": "Inhibition of human recombinant eNOS expressed in baculovirus infected Sf9 cells assessed as conversion of [3H]L-arginine to [3H]L-citrulline preincubated for 15 mins measured after 45 mins by liquid scintillation counting", "assay_type": "cell-based"}},
  "data": [
    {"smiles": "N=C(Nc1ccc2c(c1)CCC(=O)N2CCN1CCCC1)c1cccs1", "values": [
      {"measurement": "IC50", "setting": "[1]", "value": 11, "unit": "µM"},
      {"measurement": "IC50", "setting": "Nitric oxide synthase 1", "value": 160, "unit": "nM"}
    ]},
    {"smiles": "N=C(Nc1ccc2c(c1)CCC(=O)N2CCCN1CCCC1)c1cccs1", "values": [
      {"measurement": "IC50", "setting": "[1]", "value": "> 100", "unit": "µM"},
      {"measurement": "IC50", "setting": "Nitric oxide synthase 1", "value": 1220, "unit": "nM"}
    ]},
    {"smiles": "CN(C)CCN1CCCc2cc(NC(=N)c3cccs3)ccc21", "values": [
      {"measurement": "IC50", "setting": "Cytochrome P450 1A2", "value": "> 100", "unit": "µM"},
      {"measurement": "IC50", "setting": "Cytochrome P450 3A4", "value": "> 100", "unit": "µM"},
      {"measurement": "IC50", "setting": "Cytochrome P450 2D6", "value": "> 100", "unit": "µM"},
      {"measurement": "IC50", "setting": "Cytochrome P450 2C9", "value": "> 100", "unit": "µM"},
      {"measurement": "IC50", "setting": "Cytochrome P450 2C19", "value": "> 100", "unit": "µM"}
    ]},
    {"smiles": "CCN(CC)CCN1CCCc2cc(NC(=N)c3cccs3)ccc21", "values": [
      {"measurement": "IC50", "setting": "[1]", "value": "> 100", "unit": "µM"},
      {"measurement": "IC50", "setting": "Nitric oxide synthase 1", "value": 260, "unit": "nM"}
    ]},
    {"smiles": "N=C(Nc1ccc2c(c1)CCCN2CCCN1CCCC1)c1cccs1", "values": [
      {"measurement": "IC50", "setting": "Nitric oxide synthase 3", "value": 9.5, "unit": "µM"},
      {"measurement": "IC50", "setting": "Nitric oxide synthase 1", "value": 86, "unit": "nM"}
    ]},
    {"smiles": "CCN(CC)CCN1C(=O)CCc2cc(NC(=N)c3cccs3)ccc21", "values": [
      {"measurement": "IC50", "setting": "[1]", "value": 12, "unit": "µM"}
    ]},
    {"smiles": "N=C(Nc1ccc2c(c1)CCC(=O)N2CCN1CCCCC1)c1cccs1", "values": [
      {"measurement": "IC50", "setting": "[1]", "value": "> 100", "unit": "µM"}
    ]},
    {"smiles": "CN(C)CCN1CCCc2cc(NC(=N)c3cccs3)cc(F)c21", "values": [
      {"measurement": "IC50", "setting": "Nitric oxide synthase 1", "value": 93, "unit": "nM"}
    ]},
    {"smiles": "CN(C)CCN1C(=O)CCc2cc(NC(=N)c3cccs3)ccc21", "values": [
      {"measurement": "IC50", "setting": "Cytochrome P450 1A2", "value": "> 100", "unit": "µM"},
      {"measurement": "IC50", "setting": "[1]", "value": 35, "unit": "µM"},
      {"measurement": "IC50", "setting": "Cytochrome P450 3A4", "value": "> 100", "unit": "µM"},
      {"measurement": "IC50", "setting": "Cytochrome P450 2D6", "value": 12.2, "unit": "µM"},
      {"measurement": "IC50", "setting": "Cytochrome P450 2C9", "value": "> 100", "unit": "µM"},
      {"measurement": "IC50", "setting": "Cytochrome P450 2C19", "value": "> 100", "unit": "µM"}
    ]},
    {"smiles": "CN(C)CCN1C(=O)CCc2cc(NC(=N)c3cccs3)cc(F)c21", "values": [
      {"measurement": "IC50", "setting": "Nitric oxide synthase 1", "value": 3360, "unit": "nM"}
    ]},
    {"smiles": "CN1CCC(N2CCCc3cc(NC(=N)c4cccs4)ccc32)CC1", "values": [
      {"measurement": "IC50", "setting": "Nitric oxide synthase 3", "value": 42.7, "unit": "µM"},
      {"measurement": "IC50", "setting": "Nitric oxide synthase 1", "value": 820, "unit": "nM"}
    ]},
    {"smiles": "N=C(Nc1ccc2c(c1)CCCN2C1CCNCC1)c1cccs1", "values": [
      {"measurement": "IC50", "setting": "Cytochrome P450 1A2", "value": "> 100", "unit": "µM"},
      {"measurement": "IC50", "setting": "[1]", "value": "> 100", "unit": "µM"},
      {"measurement": "IC50", "setting": "Nitric oxide synthase 3", "value": 119, "unit": "µM"},
      {"measurement": "IC50", "setting": "Nitric oxide synthase 1", "value": 540, "unit": "nM"},
      {"measurement": "IC50", "setting": "Cytochrome P450 3A4", "value": "> 100", "unit": "µM"},
      {"measurement": "IC50", "setting": "Cytochrome P450 2D6", "value": "> 100", "unit": "µM"},
      {"measurement": "IC50", "setting": "Cytochrome P450 2C9", "value": "> 100", "unit": "µM"},
      {"measurement": "IC50", "setting": "Cytochrome P450 2C19", "value": 47.1, "unit": "µM"}
    ]},
    {"smiles": "CN1CCCC1CCN1C(=O)CCc2cc(NC(=N)c3cccs3)ccc21", "note": "(racemic)", "values": [
      {"measurement": "IC50", "setting": "[1]", "value": "> 100", "unit": "µM"},
      {"measurement": "IC50", "setting": "Nitric oxide synthase 1", "value": 1050, "unit": "nM"}
    ]}
  ]
}
